Laboratory results from patent US8663616B2, “Enzymatic peracid generation for use in oral care products” (E I du Pont de Nemours and Company, priority 2010, dated 2014).
Values belong to the molecule of their own block, whether it stands above or below them.

How the values were obtained:
[1] = Peracetic acid vs hydrogen peroxide bleaching of coffee/tea stained bovine enamel (whiteness index); details: for ΔWI: 0 to 61 min; for Whiteness Index 0 min: before exposure
From the text: This example describes the use of peracetic acid to achieve a bleaching effect on model stained enamel surfaces. Bovine enamel incisors were obtained from SE Dental (Baton Rouge, La.). Teeth were sectioned and cut into enamel slabs approximately 7 mm on each side using a DREMEL® rotary saw (Robert Bosch Power Tool Corporation; Chicago, Ill.) with a diamond blade. The enamel slabs were cleaned and lightly polished to remove surface debris. The enamel was pretreated with a mixture of coffee and tea for 1-5 days in order to stain to a color similar to human stained teeth.
Each enamel block was hydrated in water for at least 1 hr prior to use. Color measurements for the substrate were obtained prior to exposure to test solutions. Solutions of peracetic acid were prepared from a 32% stock in 500 mM sodium phosphate buffer, pH 7.2. A solution of 2.5% H2O2 was also prepared in the same buffer. Multiple enamel blocks were exposed to each solution for 1 min followed by additional exposures of 5 min, 10 min, 15 min and 30 min. For each treatment, a fresh solution of peracetic acid and hydrogen peroxide was prepared from the stock solutions. After each treatment the enamel blocks were rinsed with water and measured with a Konica-Minolta 2600d spectrophotometer.
(§1) Whiteness index (WI) is defined by the International Commission on Illumination (CIE) and described in ASTM method E313-05 and calculated for D65/10 incident light as: WI=Y+800*(0.3138−x)+1700*(0.3310−y) Where Y, x, and y are the luminance factor and the chromaticity coordinates respectively of the enamel substrate.

[2] = One-step bleaching of stained bovine enamel with perhydrolase system (Example 12)
From the text: as §1
(§2) The purpose of this example is to show the tooth bleaching effect of enzymatic generated peracetic acid in a one-step application and compare to the performance achieved with chemically derived peracetic acid. Two methods were developed to use a perhydrolytic enzyme (CE-7 perhydrolase) system to achieve the target level of tooth bleaching. The first method (referred to herein as the “one-step approach”) comprises combining different amounts of at least one CE-7 perhydrolase with triacetin (an example of a suitable ester substrate) and hydrogen peroxide to generate peracetic acid using model stained enamel substrates. Bovine enamel incisors were prepared as indicated in Example 1. Stained bovine enamel blocks were hydrated in water at least 1 hr prior to use to stabilize the color of the substrate. The color for each enamel block was measured after hydration prior to the start of the experiment. Three enamel samples were treated for each solution type. The solutions used were a buffer only control, 2.5% H2O2, 1% peracetic acid, a perhydrolase composition including 10 μM EZ-1 (C277S; SEQ ID NO: 424), 100 mM triacetin and 250 mM H2O2 and a no enzyme control of 100 mM triacetin and 250 mM H2O2. All solutions were prepared in 500 mM sodium phosphate buffer, pH 7.2. The high buffer strength was necessary to maintain the 1% peracetic acid solution at neutral pH. All solutions were freshly prepared for each treatment point. The enzyme-triacetin-H2O2 combination and triacetin-H2O2 combination was mixed immediately before enamel exposure. After each treatment step, each enamel block was rinsed with water and a color measurement was obtained. A total treatment time of 61 min was used with durations of exposure of 1 min, 5 min, 10 min, 15 min and 30 min. The concentration of peracetic acid in solution after the 1 min, 10 min and 30 min treatments was evaluated by colorimetric detection of ABTS oxidation.

[3] = Peracetic acid in treatment solution by ABTS absorbance (Example 12); type: biochemical; details: 1:100 dilution into ABTS reagent
From the text: as §2
Determination of the peracetic acid (PAA) concentration in the reaction mixtures by a colorimetric method was performed according to the method described by Dinu et. al. (supra). A reagent solution of 1 mM 2,2′-azino-bis(3-ethylbenzothiazoline)-6-sulfonate (ABTS), 50 μM potassium iodide in 125 mM potassium citrate buffer at pH 5.0 was prepared. […] The solution was analyzed for absorbance at 405 nm using a Microplate reader. A comparison of relative amounts of peracetic acid in solution was determined by comparing absorbance values directly.

[4] = Bleaching of coffee-tea stained bovine enamel with EZ-1 and various ester substrates (Example 15)
Method: The optimal conditions used for the generation of peracetic acid with each substrate were derived from the studies in Example 14 and are listed below as follows:
Bovine enamel incisors were prepared as indicated in Example 1. The stained enamel blocks were placed in a 24 well plate with the dentin side facing down and hydrated overnight in phosphate buffer, pH 7.2. Prior to treatment, a color measurement of each tooth was performed using a Konica-Minolta 2600d spectrophotometer and whiteness index was calculated as specified in Example 1.
Each enzyme solution was prepared in a 1.5-mL microfuge tube (Eppendorf, #2243102-1) and 1 mL of the solution was immediately transferred to the 24 well plate containing the pre-hydrated teeth. The control samples consisted of 100 mM phosphate buffer, pH 7.2 and 9% H2O2 in 100 mM citrate/phosphate buffer, pH 5.3. The teeth were incubated at room temperature for 30 minutes, removed, rinsed with 100 mM phosphate, pH 7.2 and a color measurement was taken. The teeth were placed back into the 24 well plate at which time fresh enzyme solutions were prepared and added to each well. This process was repeated for a total of 3 whitening treatments; 30 min per treatment (Table 22).

[5] = Peracetic acid generated in solution by C277S CXH fusions (Example 9); details: 0.5 μM enzyme, sarkosyl buffer, 100 mM triacetin, 100 mM H2O2, pH 7.2, 10 min, 37° C.
[6] = Peracetic acid from C277S CXH fusions exposed to hydroxyapatite discs (Example 9); details: no enzyme control subtracted; for Peracetic acid (ppm) Exposed to Hydroxyapatite, Disc: disc-bound enzyme, 100 mM triacetin, 100 mM H2O2, 30 min, 37° C.; for Peracetic acid (ppm) Exposed to Hydroxyapatite, Supernatant: unbound enzyme in supernatant after 10 μM enzyme on disc

Whiteness Index 0 min ([2]; before treatment, 2.5% H2O2, 100 mM triacetin/250 mM H2O2, 1% PAA, 10 μM EZ-1/100 mM triacetin/250 mM H2O2, pH 7.2): −149.3
ΔWI ([2]; one-step, 0 to 61 min): 46.2
Whiteness Index 1 min ([2]; one-step, cumulative treatment 1 min): −146.3
Whiteness Index 6 min ([2]; one-step, cumulative treatment 6 min): −142.5
Whiteness Index 16 min ([2]; one-step, cumulative treatment 16 min): −134.7
Whiteness Index 31 min ([2]; one-step, cumulative treatment 31 min): −125.2
Whiteness Index 61 min ([2]; one-step, cumulative treatment 61 min): −103.1
Molecule: OO [Enzyme H2O2, hydrogen peroxide]
ΔWI ([1]; Table 1, 2.5% H2O2 or 0.5% PAA): 42.6
Whiteness Index 1 min ([1]; Table 1, 2.5% H2O2 or 0.5% PAA, cumulative exposure 1 min): −127.2
Whiteness Index 6 min ([1]; Table 1, 2.5% H2O2 or 0.5% PAA, cumulative exposure 6 min): −124.5
Whiteness Index 16 min ([1]; Table 1, 2.5% H2O2 or 0.5% PAA, cumulative exposure 16 min): −118.4
Whiteness Index 31 min ([1]; Table 1, 2.5% H2O2 or 0.5% PAA, cumulative exposure 31 min): −103.6
Whiteness Index 61 min ([1]; Table 1, 2.5% H2O2 or 0.5% PAA, cumulative exposure 61 min): −84.9
Whiteness Index 0 min ([1]; Table 1, 2.5% H2O2 or 0.5% PAA, 500 mM sodium phosphate pH 7.2): −127.5
Whiteness Index 1 min ([1]; Table 2, 2.5% H2O2): −92.6
Whiteness Index 6 min ([1]; Table 2, 2.5% H2O2): −86.4
Whiteness Index 16 min ([1]; Table 2, 2.5% H2O2): −79.5
Whiteness Index 31 min ([1]; Table 2, 2.5% H2O2): −68.3
Whiteness Index 61 min ([1]; Table 2, 2.5% H2O2): −56.4
ΔWI ([1]; Table 2, 2.5% H2O2): 37.4
Whiteness Index 0 min ([1]; Table 2, 2.5% H2O2): −93.8
Absorbance 405 nm, 1 min ([3]; peracetic acid at end of 1 min treatment): 0.056
Absorbance 405 nm, 10 min ([3]; peracetic acid at end of 10 min treatment): 0.060
Absorbance 405 nm, 30 min ([3]; peracetic acid at end of 30 min treatment): 0.054
Whiteness Index Treatment 1 ([4]; after 1 x 30 min treatment): −129.6
Whiteness Index Treatment 2 ([4]; after 2 x 30 min treatments): −117.6
Whiteness Index Treatment 3 ([4]; after 3 x 30 min treatments): −115.2
Whiteness Index Treatment 0 ([4]; before treatment, 40 ppm EZ-1, 100 mM substrate, H2O2 100 mM (TA), 360 mM (PGDA, SOC), 60 mM (GPA), pH 7.2, control 9% H2O2 pH 5.3 without enzyme): −167.6
ΔWI ([4]; treatment 0 to treatment 3): 52.4

B1: EZ-25: C277S-EPEPE-Link1-EPEPE-CXHG102-H6, SEQ ID NO: 449 (protein)
chain: MAFFDLPLEELKKYRPERYEEKDFDEFWEETLAESEKFPLDPVFERMESHLKTVEAYDVTFSGYRGQRIKGWLLVPKLEEEKLPCVVQYIGYNGGRGFPHDWLFWPSMGYICFVMDTRGQGSGWLKGDTPDYPEGPVDPQYPGFMTRGILDPRTYYYRRVFTDAVRAVEAAASFPQVDQERIVIAGGSQGGGIALAVSALSKKAKALLCDVPFLCHFRRAVQLVDTHPYAEITNFLKTHRDKEEIVFRTLSYFDGVNFAARAKIPALFSVGLMDNISPPSTVFAAYNYYAGPKEIRIYPYNNHEGGGSFQAVEQVKFLKKLFEKGEPEPEPEGPGSGGAGSPGSAGGPGSEPEPEPELRFLARRFLKLRRARKWWNAWKVWVTRHHHHHH
Peracetic acid (ppm) In Solution [5]: 1703 ppm
Peracetic acid (ppm) Exposed to Hydroxyapatite, Disc [6]: 1791 ppm
Peracetic acid (ppm) Exposed to Hydroxyapatite, Supernatant [6]: 1029 ppm

B2: EZ-26: C277S-EPEPEPEPEPE-Link1-CXHG102-H6, SEQ ID NO: 450 (protein)
chain: MAFFDLPLEELKKYRPERYEEKDFDEFWEETLAESEKFPLDPVFERMESHLKTVEAYDVTFSGYRGQRIKGWLLVPKLEEEKLPCVVQYIGYNGGRGFPHDWLFWPSMGYICFVMDTRGQGSGWLKGDTPDYPEGPVDPQYPGFMTRGILDPRTYYYRRVFTDAVRAVEAAASFPQVDQERIVIAGGSQGGGIALAVSALSKKAKALLCDVPFLCHFRRAVQLVDTHPYAEITNFLKTHRDKEEIVFRTLSYFDGVNFAARAKIPALFSVGLMDNISPPSTVFAAYNYYAGPKEIRIYPYNNHEGGGSFQAVEQVKFLKKLFEKGEPEPEPEPEPEPEPEGPGSGGAGSPGSAGGPGSLRFLARRFLKLRRARKWWNAWKVWVTRHHHHHH
Peracetic acid (ppm) In Solution [5]: 2273 ppm
Peracetic acid (ppm) Exposed to Hydroxyapatite, Disc [6]: 1849 ppm
Peracetic acid (ppm) Exposed to Hydroxyapatite, Supernatant [6]: 1636 ppm
